Results from US11304964B2, “Bolaamphiphilic compounds, compositions and uses thereof” (priority 2012, dated 2022).

Key:
[1] = Tenofovir concentration in brain after i.v. tenofovir-loaded vesicles (HPLC-UV of brain homogenate); type: in vivo, mice
Text: Protein precipitation was accomplished by adding trichloroacetic acid (TCA) at a final concentration of 3.75%, providing a clear supernatant by centrifugation. This supernatant was neutralized by 1% sodium hydroxide solution and the neutralized extract was examined by HPLC with a UV detector, using an isocratic method with 10% aceto-nitrile and 90% buffer of triethyl amine in water adjusted to pH 5.4 with concentrated phosphoric acid. When applied to a solution of tenofovir in buffer without the brain extract, the retention time was 17.3 min (FIG. 8 Panel A). […] The broad peak at 22.5 min overlapped the peak of the tenofovir at 17 min (compare FIG. 8 Panel B to FIG. 8 Panel A) and would interfere with the determination of tenofovir concentration in the extract. To narrow the peak of the endogenous compound with the Rt of 22.5 min, a solid phase extraction (SPE) method was employed, using BOND ELUT-C18 column. After the treatment with SPE some peaks disappeared and the others became narrower.
Different concentrations of tenofovir were then spiked into a supernatant obtained after deproteinization of brain homogenate with TCA and centrifugation. The supernatant with the tenofovir was loaded into the SPE cartridge, which was conditioned by 3 ml methanol and 3 ml of 150 mM ammonium acetate (pH=5.0). After washing with 900 μl of 100 mM ammonium acetate (pH=7.0), in order to obtain less interference at the retention time of each component, the column was eluted by 500 μl of methanol to collect the tenofovir. The solvent was removed under nitrogen at 60° C. The extracted sample was dissolved into 120 μl of water and methanol solution (90:10, v/v) and injected into the HPLC.
In view of the conditions for the determination of tenofovir in brain homogenates established herein, mice were injected with 7.5 mg/kg of tenofovir encapsulated in vesicles prepared as for Table 5 above that contained the optimal GLH-55b and SA and brain homogenates were prepared from the brains of these mice for the determination of tenofovir concentrations. […] This concentration value is significant and should have a therapeutic affect against HIV.
A subsequent in vivo experiment was carried out as above but with testing over different periods of time from of 15 min, 30 min, 60 min and 120 min after IV injection the amount of tenofovir was in micro gr/grm brain 6.2, 2.2, 1.0 and 0.5 respectively. While the free tenofovir injected had levels of 0 less than 0.2 micrograms/gr brain. Thus indicating the efficacy of the vesicles to delivery tenofovir to the brain.

[2] = human subjects treated orally with 300 mg tenofovir; cited from earlier work
[3] = Tenofovir encapsulation in bolaamphiphile vesicles (UV absorbance after Sephadex G50 separation); type: physicochemical
Method: Bolaamphiphiles, cholesterol, and CHMES (2:1:1 mole ratio) are dissolved in chloroform or a suitable solvent. […] The solvents are evaporated under vacuum and the resultant thin films are hydrated in 0.2 mg/mL CF solution in PBS and probe-sonicated (Vibra-Cell VCX130 sonicator, Sonics and Materials Inc., Newtown, Conn., USA) with amplitude 20%, pulse on: 15 sec, pulse off: 10 sec to achieve homogenous vesicle dispersions. Vesicle size and zeta potential were determined using a Zetasizer Nano ZS (Malvern Instruments, UK).
Methods were established to determine quantitatively the amount of the encapsulated tenofovir based on a UV absorption and determined the percent of tenofovir encapsulation by various vesicle formulations (data not shown). […] One objective of this work was to achieve the maximum amount of tenofovir encapsulated per vesicle along with a minimum loss of the non-encapsulated drug. Accordingly, several parameters were examined, such as varying the ratio among the vesicle components, changing the ratio of tenofovir to bolaamphiphiles, varying the pH of the hydration solution and also adding to the formulation additional additives, in the attempt to increase the encapsulation capacity of the vesicles.
In particular, in order to maximize tenofovir encapsulation the following parameters were studied: (1) tenofovir to GLH ratio; (2) adjusting the concentrations of cholestyrl hemisuccinate (CHEM) and cholesterol (CHOL), components that are used in the vesicle formulation, (3) examining several buffers and pHs in the encapsulation process, (4) time of sonication, and (5) tenofovir concentration, and (6) addition of stearyl amine to the vesicle formulation to enhance encapsulation by complexation with tenofovir.
The vesicles were prepared from formulations with and without SA and the non-encapsulated tenofovir (free tenofovir) was separated from the encapsulated tenofovir on Sephadex G50 column and the absorbance at 260 nm of each fraction collected from the column was read.

[4] = CNS penetration effectiveness index; cited from earlier work
[5] = Pharmacokinetic studies, first set (LC-MS, blood and brain); conditions: for half-life: mouse, iv, 34 mg/kg
Method: The chromatographic separation was performed with an HPLC Agilent 1100 instrument and Auto-sampler G 1329A ALS 1200 Series with Frizzier G1330B FC/ALS Therm, at a temperature of 4° C., using a reverse phase Kromasile 100A C18 250×2.0 (5 μm) column at 30° C. under gradient conditions. The mobile phase consisted of two solvents: (A) acetonitrile and (B) 0.5% formic acid in water and was operated under the following conditions:
The MS/MS detector was an Ion Trap MS Esquire 3000 Plus (Bruker Daltonics), operating in the ESI positive polarity mode. The internal standard was 2′-deoxyadenosine 5′-phosphate.
After establishing conditions for the LC-MS as described above, brain homogenate and blood samples were prepared and spiked known concentrations of tenofovir and a fixed concentration of the internal standard into the blood samples and the brain homogenates. The specimens were then processed by adding 180 μL of 10% Tri Chloro Acetic acid (TCA) to 300 μL of the homogenate followed by centrifugation to obtain a clear solution of blood or brain extracts. The supernatant that was obtained by the centrifugation was neutralized with 200 μL of 1% NaOH. The MS signals that were obtained from each sample were plotted as a function of the spiked tenofovir concentration to obtain calibration curves for the blood (FIG. 17A) and for the brain (FIG. 17B).
For the PK studies, vesicles optimized as described above were used for the delivery of tenofovir into the brain. […] The vesicles were prepared by film hydration followed by sonication using a HEPES hydration buffer.
In the first set of the PK experiments, mice (average weight was 22 g per mouse) were injected with vesicles that contained encapsulated tenofovir or with empty vesicles followed by free tenofovir (4 mice per group). […] The dose of the total tenofovir was 34 mg/kg, out of which 6.8 mg/kg was encapsulated (only when encapsulated tenofovir was injected). […] Before the injection of the test material, mice were pretreated with 0.5 mg/kg pyridostigmine to inhibit choline esterases in the blood (unless otherwise stated), since vesicles that contain GLH-20 release their content in presence of choline esterases. At various times after the injection (15, 30, 75, 120 and 240 min), blood samples were withdrawn and the mice were perfused with 10 mL PBS and sacrificed. Brains were immediately removed after sacrificing the mice and brain homogenates were prepared by homogenizing the brains in PBS (4 mL PBS per gram brain). Extracts of the homogenates were then prepared by adding 180 μL of 10% TCA to 300 μL of the homogenate followed by centrifugation to obtain a clear solution of the brain extract. The supernatant that was obtained by the centrifugation was neutralized with 200 μL of 1% NaOH. Tenofovir concentration in the clear brain extract was determined by LC-MS, using the calibration curve which is described above in FIG. 17. The blood samples were centrifuged to separate the serum from the blood cells and processed in the same way as the brain homogenates.

[6] = HEPES pH 7.5, GLH 19/20 (2:1) 10 mg/ml, SA 1.25 mg/ml, tenofovir 5 mg/ml, standard CHOL/CHEMS
[7] = HEPES pH 7.5, GLH 19/20 (2:1) 10 mg/ml, SA 2.5 mg/ml, tenofovir 5 mg/ml, standard CHOL/CHEMS
[8] = HEPES pH 7.5, GLH 19/20 (2:1) 10 mg/ml, SA 3.5 mg/ml, tenofovir 5 mg/ml, standard CHOL/CHEMS
[9] = HEPES pH 7.5, GLH 19/20 (2:1) 10 mg/ml, tenofovir 1 mg/ml, standard CHOL/CHEMS
[10] = HEPES pH 7.5, GLH 19/20 (2:1) 10 mg/ml, tenofovir 2 mg/ml, ½ the standard amount of cholesterol and cholesteryl hemisuccinate
[11] = HEPES pH 7.5, GLH 19/20 (2:1) 15 mg/ml, SA 2.5 mg/ml, tenofovir 5 mg/ml, standard CHOL/CHEMS
[12] = HEPES pH 7.5, GLH 19/20 (2:1) 15 mg/ml, tenofovir 1 mg/ml, standard CHOL/CHEMS
[13] = HEPES pH 7.5, GLH 19/20 (2:1) 15 mg/ml, tenofovir 2 mg/ml, ½ the standard amount of cholesterol and cholesteryl hemisuccinate
[14] = HEPES pH 8, GLH 19/20 (2:1) 15 mg/ml, SA 2.5 mg/ml, tenofovir 5 mg/ml, standard CHOL/CHEMS
[15] = HEPES pH 8, GLH 19/20 (2:1) 15 mg/ml, tenofovir 1 mg/ml, standard CHOL/CHEMS
[16] = TRIS pH 8, GLH 19/20 (2:1) 10 mg/ml, SA 2.5 mg/ml, tenofovir 5 mg/ml, standard CHOL/CHEMS
[17] = TRIS pH 8, GLH 19/20 (2:1) 10 mg/ml, tenofovir 1 mg/ml, standard CHOL/CHEMS
[18] = TRIS pH 8, GLH 19/20 (2:1) 10 mg/ml, tenofovir 2 mg/ml, standard CHOL/CHEMS
[19] = TRIS pH 8, GLH 19/20 (2:1) 10 mg/ml, tenofovir 5 mg/ml, standard CHOL/CHEMS
[20] = TRIS pH 8, GLH 19/20 (2:1) 20 mg/ml, tenofovir 5 mg/ml, standard CHOL/CHEMS

With `C[C@H](Cn1cnc2c(N)ncnc21)OCP(=O)(O)O` [tenofovir, ({[(2R)-1-(6-amino-9H-purin-9-yl)propan-2-yl]oxy}methyl)phosphonic acid] the “concentration of tenofovir in the brain” value ([1]; mice i.v., 7.5 mg/kg tenofovir encapsulated in vesicles with GLH-55b and SA, estimated from calibration curve) was 22.7 μg/gr brain, the “level of tenofovir in brain” value ([1]; mice, free tenofovir injected IV) was “less than 0.2 micrograms/gr brain” and the concentration at 15 min ([1]; mouse, brain, 7.5 mg/kg, mice, encapsulated tenofovir in vesicles, 15 min after IV injection, read-out: amount of tenofovir in brain) was 6200 ng/g. For the same molecule, the concentration at 30 min ([1]; mouse, brain, 7.5 mg/kg, mice, encapsulated tenofovir in vesicles, 30 min after IV injection, read-out: amount of tenofovir in brain) was 2200 ng/g, the concentration at 60 min ([1]; mouse, brain, 7.5 mg/kg, mice, encapsulated tenofovir in vesicles, 60 min after IV injection, read-out: amount of tenofovir in brain) was 1000 ng/g and the concentration at 120 min ([1]; mouse, brain, 7.5 mg/kg, mice, encapsulated tenofovir in vesicles, 120 min after IV injection, read-out: amount of tenofovir in brain) was 500 ng/g. The “blood concentration of tenofovir” value [2] was “about 500 ng/ml”, the “% tenofovir encapsulation” value [3, 6] was 15.9% and the “Ratio of tenofovir encapsulated to bolaamphiphiles” value (“Ratio of tenofovir encapsulated” for short) [3, 6] was 0.062 mg/mg. For the same molecule, the “% tenofovir encapsulation” value [3, 7] was 21.4%, the “Ratio of tenofovir encapsulated” value [3, 7] was 0.107 mg/mg and the “% tenofovir encapsulation” value ([3]; HEPES pH 7.5, GLH 19/20 (2:1) 10 mg/ml, SA 2.5 mg/ml, tenofovir 5 mg/ml, ½ the standard amount of cholesterol and cholesteryl hemisuccinate) was “**22%”. The “% tenofovir encapsulation” value [3, 8] was 30.9%, the “Ratio of tenofovir encapsulated” value [3, 8] was 0.155 mg/mg and the “% tenofovir encapsulation” value [3, 9] was 17.4%. The “mg tenofovir encapsulated/mg bola” value [3, 9] was 0.026 mg tenofovir encapsulated/mg bola, the “mg tenofovir encapsulated/mg bola” value ([3]; HEPES pH 7.5, GLH 19/20 (2:1) 10 mg/ml, tenofovir 2 mg/ml, standard CHOL/CHEMS) was 0.024 mg tenofovir encapsulated/mg bola and the “% tenofovir encapsulation” value [3, 10] was “**16.5%”. The “mg tenofovir encapsulated/mg bola” value [3, 10] was “**0.033 mg tenofovir encapsulated/mg bola”, the “% tenofovir encapsulation” value ([3]; HEPES pH 7.5, GLH 19/20 (2:1) 10 mg/ml, tenofovir 5 mg/ml, standard CHOL/CHEMS) was 7.8% and the “% tenofovir encapsulation” value ([3]; HEPES pH 7.5, GLH 19/20 (2:1) 10 mg/ml, tenofovir 7.5 mg/ml, standard CHOL/CHEMS) was 3.8%. The “% tenofovir encapsulation” value [3, 11] was 18.6%, the “Ratio of tenofovir encapsulated” value [3, 11] was 0.08 mg/mg and the “% tenofovir encapsulation” value [3, 12] was 38.6%. For the same molecule, the “mg tenofovir encapsulated/mg bola” value [3, 12] was 0.026 mg tenofovir encapsulated/mg bola, the “% tenofovir encapsulation” value ([3]; HEPES pH 7.5, GLH 19/20 (2:1) 15 mg/ml, tenofovir 2 mg/ml, standard CHOL/CHEMS) was 18.4, % and the “% tenofovir encapsulation” value [3, 13] was “**22.5%”. The “mg tenofovir encapsulated/mg bola” value [3, 13] was “**0.033 mg tenofovir encapsulated/mg bola”, the “% tenofovir encapsulation” value [3, 14] was 23% and the “Ratio of tenofovir encapsulated” value [3, 14] was 0.077 mg/mg. The “% tenofovir encapsulation” value [3, 15] was 31.2%, the “mg tenofovir encapsulated/mg bola” value [3, 15] was 0.021 mg tenofovir encapsulated/mg bola and the “% tenofovir encapsulation” value ([3]; TRIS pH 8, GLH 19/20 (2:1) 5 mg/ml, tenofovir 1 mg/ml in hydration solution, standard CHOL/CHEMS) was 4%. For the same molecule, the “mg tenofovir encapsulated/mg bola” value ([3]; TRIS pH 8, GLH 19/20 (2:1) 5 mg/ml, tenofovir 1 mg/ml, standard CHOL/CHEMS) was 0.008 mg tenofovir encapsulated/mg bola, the “% tenofovir encapsulation” value [3, 16] was 12.7% and the “Ratio of tenofovir encapsulated” value [3, 16] was 0.064 mg/mg. For the same molecule, the “% tenofovir encapsulation” value [3, 17] was 11%, the “mg tenofovir encapsulated/mg bola” value [3, 17] was 0.011 mg tenofovir encapsulated/mg bola and the “% tenofovir encapsulation” value [3, 18] was 9%. The “mg tenofovir encapsulated/mg bola” value [3, 18] was 0.018 mg tenofovir encapsulated/mg bola, the “% tenofovir encapsulation” value [3, 19] was 6% and the “mg tenofovir encapsulated/mg bola” value [3, 19] was 0.03 mg tenofovir encapsulated/mg bola. The “mg tenofovir encapsulated/mg bola” value ([3]; TRIS pH 8, GLH 19/20 (2:1) 15 mg/ml, tenofovir 1 mg/ml, standard CHOL/CHEMS) was 0.016 mg tenofovir encapsulated/mg bola, the “% tenofovir encapsulation” value ([3]; TRIS pH 8, GLH 19/20 (2:1) 15 mg/ml, tenofovir 1 mg/ml, standard CHOL/CHEMS, ±SEM) was 24.5 ± 2.1% and the “mg tenofovir encapsulated/mg bola” value ([3]; TRIS pH 8, GLH 19/20 (2:1) 15 mg/ml, tenofovir 2 mg/ml, standard CHOL/CHEMS) was 0.03 mg tenofovir encapsulated/mg bola. For the same molecule, the “% tenofovir encapsulation” value ([3]; TRIS pH 8, GLH 19/20 (2:1) 15 mg/ml, tenofovir 2 mg/ml, standard CHOL/CHEMS, ±SEM) was 21 ± 2.1%, the “mg tenofovir encapsulated/mg bola” value ([3]; TRIS pH 8, GLH 19/20 (2:1) 15 mg/ml, tenofovir 5 mg/ml, standard CHOL/CHEMS) was 0.03 mg tenofovir encapsulated/mg bola and the “% tenofovir encapsulation” value ([3]; TRIS pH 8, GLH 19/20 (2:1) 15 mg/ml, tenofovir 5 mg/ml, standard CHOL/CHEMS, ±SEM) was 9 ± 1.4%. The “mg tenofovir encapsulated/mg bola” value ([3]; TRIS pH 8, GLH 19/20 (2:1) 20 mg/ml, tenofovir 1 mg/ml, standard CHOL/CHEMS) was 0.02 mg tenofovir encapsulated/mg bola, the “% tenofovir encapsulation” value ([3]; TRIS pH 8, GLH 19/20 (2:1) 20 mg/ml, tenofovir 1 mg/ml, standard CHOL/CHEMS, ±SEM) was 31.4 ± 4.5% and the “mg tenofovir encapsulated/mg bola” value ([3]; TRIS pH 8, GLH 19/20 (2:1) 20 mg/ml, tenofovir 2 mg/ml, standard CHOL/CHEMS) was 0.022 mg tenofovir encapsulated/mg bola. The “% tenofovir encapsulation” value ([3]; TRIS pH 8, GLH 19/20 (2:1) 20 mg/ml, tenofovir 2 mg/ml, standard CHOL/CHEMS, ±SEM) was 22.5 ± 3.5%, the “% tenofovir encapsulation” value [3, 20] was 9.3% and the “mg tenofovir encapsulated/mg bola” value [3, 20] was 0.023 mg tenofovir encapsulated/mg bola. For the same molecule, the “% of the added tenofovir encapsulated” value ([3]; optimal formulation for PK: 10 mg GLH 19/20 2/1, 1 mg GLH-55b, 2.5 mg stearyl amine, 5 mg tenofovir per mL, HEPES) was 20%, the “amount of the encapsulated tenofovir” value ([3]; optimal formulation used in first set of PK experiments) was 1 mg/mL vesicles and the “percent of tenofovir encapsulation” value ([3]; various vesicle formulations, conditions that yielded maximum encapsulation (before optimization)) was 18-20%. For the same molecule, the CPE rating [4] was 1, the “tenofovir concentration in the brain” value ([5]; mice injected with empty vesicles and then free tenofovir) was “not detected” and the half-life ([5]; brain, apparent half-life of tenofovir in the brain, mice pretreated with pyrido, tenofovir encapsulated in GLH-19 + GLH-20 vesicles, i.v.) was about 40 min. For the same molecule, the half-life ([5]; serum, actual half-life of the encapsulated tenofovir in the blood, inferred, encapsulated tenofovir only 20% of injected) was over 20 min, the half-life ([5]; serum, half-life of tenofovir in the blood (apparent), mice i.v., total tenofovir 34 mg/kg of which 6.8 mg/kg encapsulated, reflects free and encapsulated tenofovir) was about 20 min and the “persistence of tenofovir in the brain” value ([5]; tenofovir encapsulated in GLH-19 vesicles, i.v. mice) was “did not persist long in the brain”.
